Measured values published in PMC5127184 (Scientific Reports, 2016).
Entries after “also recorded” stand apart in the source; their conditions may differ. One block for each compound: values may come before it. Ends that are not written are not given here.

How the values were obtained:
DPP-4 [1] = assay: Cleavage by purified human DPP-4 (RP-HPLC); format: in vitro ADME; conditions: human, isolated enzyme dpp iv, 30 μM peptide, DPP-4 3 U/L, 0.1 M sodium phosphate pH 7.4, 37 °C, UV 215.8 nm, n = 3, read-out: Time to 50% reduction of intact peptide with purified human DPP-4
Description: (§1) Samples were analysed by RP-HPLC with solvent A (0.1% TFA in water) and B (80% acetonitrile in 0.1% aqueous TFA) at a flow rate of 0.5 ml/min.

INS-1 (832/13) cells = assay: cAMP accumulation, INS-1 (832/13) cells; format: cell-based; conditions: normalized to forskolin response, means ± S.E.M. of at least three experiments in triplicate
pGLP-1R [2] = assay: Intracellular Ca2+ mobilization, FlpInCHO-pGLP-1R cells; format: cell-based, platypus; conditions: normalized to 100 μM ATP, means ± S.E.M. of at least three experiments in triplicate
Description: (§2) Human and pGLP-1R cDNAs were isogenically integrated into FlpIn-Chinese hamster ovary (FlpInCHO) cells (Invitrogen) and selection of receptor-expressing cells accomplished by treatment with 600 μg/ml hygromycin B as described previously. Transfected and parental FlpInCHO cells were maintained in DMEM supplemented with 10% heat-inactivated FBS and incubated in a humidified environment at 37 °C in 5% CO2.
(§3) FlpInCHO-hGLP-1R and FlpInCHO-pGLP-1R cells were seeded at a density of 3 × 10^4 cells/well into 96-well culture plates and incubated overnight at 37 °C in 5% CO2 and receptor-mediated intracellular Ca^2+ mobilization determined as described previously.
(§4) All data were analysed in Prism 6.0c (GraphPad Software Inc., San Diego, CA). Concentration response signalling data were analysed using a three-parameter logistic equation as described previously. Signalling bias was analysed as described. Briefly, quantification of signal bias was performed using pharmacologically derived parameters of agonist affinity (Ka) and efficacy (tau) for each ligand in each of the three signalling pathways (cAMP accumulation, ERK1/2 phosphorylation, Intracellular Ca^2+ mobilisation). […] Data are presented on a log scale.

pGLP-1R [3] = assay: Radioligand competition binding, FlpInCHO-pGLP-1R cells; design: species or system platypus; conditions: competition with 125I-hGLP-1 (7–36), 0.15 nM, FlpInCHO cells stably expressing pGLP-1R, overnight 4 °C; means ± S.E.M. of two or three experiments in triplicate
Description: as §2
Cells were then incubated overnight at 4 °C, followed by three washes with ice-cold 1 × PBS to remove unbound radioligand. Cells were then lysed in 0.1 M NaOH, and radioactivity determined by γ-counting as described previously.
as §4

[4] = 12.5% echidna serum in 100 mM sodium phosphate buffer (PH 7.4), 150 mM NaCl, 0.2% Tween-20; conditions: 37 °C, up to 4 h
[5] = 12.5% platypus serum in 100 mM sodium phosphate buffer (PH 7.4), 150 mM NaCl, 0.2% Tween-20; conditions: 37 °C, up to 4 h
[6] = 12.5% human serum in 100 mM sodium phosphate buffer (PH 7.4), 150 mM NaCl, 0.2% Tween-20; conditions: 37 °C, up to 4 h
echidna serum = conditions: 37 °C, up to seven hours
[7] = purified human serum in the presence of DPP-4 inhibitor P32/98; conditions: 37 °C, up to 11 h
[8] = albumin-depleted human serum (purified by DEAE Affi-Gel Blue Cartridges); conditions: 37 °C, up to 11 h
DPP-4 [9] = assay: DPP-4 (3 U/L) in sodium phosphate buffer (0.1 M, pH 7.4); conditions: human, 37 °C, up to 120 min
hGLP-1R [10] = target: T1, hGLP-1R (Homo sapiens, UniProt P43220); assay: Radioligand competition binding, FlpInCHO-hGLP-1R cells
T1 construct: expressed in transfected cells
T1 sequence (P43220 24-463): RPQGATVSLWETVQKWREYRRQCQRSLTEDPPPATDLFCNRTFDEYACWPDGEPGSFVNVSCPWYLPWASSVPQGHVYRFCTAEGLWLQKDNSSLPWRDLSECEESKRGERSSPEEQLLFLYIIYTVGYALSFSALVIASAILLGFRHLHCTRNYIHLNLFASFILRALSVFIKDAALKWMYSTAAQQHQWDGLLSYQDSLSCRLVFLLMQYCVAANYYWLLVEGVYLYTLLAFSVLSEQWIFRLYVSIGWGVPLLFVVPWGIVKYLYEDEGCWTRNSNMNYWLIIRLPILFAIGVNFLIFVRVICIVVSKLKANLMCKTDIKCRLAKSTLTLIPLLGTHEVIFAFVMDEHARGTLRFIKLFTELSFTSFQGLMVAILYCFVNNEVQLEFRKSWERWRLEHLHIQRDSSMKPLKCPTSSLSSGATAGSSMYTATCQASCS
Description: as §2, with “CO2. INS-1(832/13) cells were cultured in RPMI-1640 medium supplemented with 10 mM HEPES, 10% heat-inactivated FBS, 2 mM L-glutamine, 1 mM sodium pyruvate, 0.05 mM β-mercaptoethanol, 100 iU/ml penicillin, and 100 µg/ml streptomycin at 37 °C in a humidified 5% CO2 atmosphere.” for “CO2.”
FlpInCHO-hGLP-1R and FlpInCHO-pGLP-1R cells were seeded at a density of 3 × 10^4 cells/well and INS-1(832/13) cells at 10^5 cells/well into 96-well culture plates and incubated overnight at 37 °C in 5% CO2. […] Cells were then lysed in 0.1 M NaOH, and radioactivity determined by γ-counting as described previously.
All data were analysed in Prism 6.0c (GraphPad Software Inc., San Diego, CA). Concentration response signalling data were analysed using a three-parameter logistic equation as described previously. Signalling bias was analysed as described. […] The transduction ratio (tau/Ka) was extracted from standard concentration-response data that was analysed with the operational model of agonism (Kenakin & Christopoulos 2012). […]

purified human DPP-4 = purified human DPP-4 (Homo sapiens, UniProt P27487); assay: Cleavage by purified human DPP-4 (RP-HPLC); format: in vitro ADME; conditions: 30 μM peptide, DPP-4 3 U/L, 0.1 M sodium phosphate pH 7.4, 37 °C, 0-120 min, n = 3
Sequence of purified human DPP-4 (P27487 whole entry): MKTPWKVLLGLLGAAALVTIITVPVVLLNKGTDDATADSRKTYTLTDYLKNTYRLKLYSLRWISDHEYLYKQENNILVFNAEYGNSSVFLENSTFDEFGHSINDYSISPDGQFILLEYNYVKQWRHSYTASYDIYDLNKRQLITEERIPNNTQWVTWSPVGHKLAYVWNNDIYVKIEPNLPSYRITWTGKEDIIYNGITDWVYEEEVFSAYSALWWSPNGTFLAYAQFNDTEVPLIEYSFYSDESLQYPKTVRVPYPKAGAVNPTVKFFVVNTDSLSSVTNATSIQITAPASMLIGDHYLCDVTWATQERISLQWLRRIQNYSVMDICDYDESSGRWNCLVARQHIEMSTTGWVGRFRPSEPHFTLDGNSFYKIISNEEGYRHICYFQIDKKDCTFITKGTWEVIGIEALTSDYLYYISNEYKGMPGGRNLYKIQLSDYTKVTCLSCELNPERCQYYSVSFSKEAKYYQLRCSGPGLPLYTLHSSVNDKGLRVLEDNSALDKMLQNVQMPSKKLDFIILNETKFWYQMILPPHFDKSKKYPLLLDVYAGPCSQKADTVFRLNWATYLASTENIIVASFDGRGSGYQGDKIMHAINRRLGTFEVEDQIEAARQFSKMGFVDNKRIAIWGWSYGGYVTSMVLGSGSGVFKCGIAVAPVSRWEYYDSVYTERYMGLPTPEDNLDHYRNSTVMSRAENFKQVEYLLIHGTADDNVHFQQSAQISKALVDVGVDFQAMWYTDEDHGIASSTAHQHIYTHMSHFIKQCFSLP
Description: as §1

in vitro [11] = format: in vitro ADME, human; conditions: 7 μM peptide, 37 °C; for Stability in albumin-depleted human serum (in words): 0-11 h, RP-HPLC, n = 3; for remaining at 11 h, 7 μM: human, 11 h incubation, serum purified by DEAE Affi-Gel Blue (albumin-depleted), RP-HPLC area under the curve of intact peptide, means ± S.E.M. of three experiments in triplicate
Description: (§5) Aliquots were analysed by RP-HPLC. Human serum was from the author Briony Forbes and provided with informed consent. We confirm that all methods for these studies were carried out in accordance with relevant guidelines and regulations, and all experimental protocols satisfy the Adelaide University Human Research Ethics Committee criteria as being “negligible risk research”.

hGLP-1R [12] = target: T1, hGLP-1R; assay: cAMP accumulation, FlpInCHO-hGLP-1R cells; format: cell-based
Description: as §2, with “CO2. INS-1(832/13) cells were cultured in RPMI-1640 medium supplemented with 10 mM HEPES, 10% heat-inactivated FBS, 2 mM L-glutamine, 1 mM sodium pyruvate, 0.05 mM β-mercaptoethanol, 100 iU/ml penicillin, and 100 µg/ml streptomycin at 37 °C in a humidified 5% CO2 atmosphere. […]” for “CO2.”
All data were analysed in Prism 6.0c (GraphPad Software Inc., San Diego, CA). Concentration response signalling data were analysed using a three-parameter logistic equation as described previously. Signalling bias was analysed as described. Briefly, quantification of signal bias was performed using pharmacologically derived parameters of agonist affinity (Ka) and efficacy (tau) for each ligand in each of the three signalling pathways (cAMP accumulation, ERK1/2 phosphorylation, Intracellular Ca^2+ mobilisation). The transduction ratio (tau/Ka) was extracted from standard concentration-response data that was analysed with the operational model of agonism (Kenakin & Christopoulos 2012). […]

in vitro [13] = format: in vitro ADME, echidna; conditions: 7 μM peptide, 37 °C; for Uncleaved peptide remaining after 11 hours in echidna serum: RP-HPLC, sentence covers platypus and echidna sera; for remaining at 11 h, 7 μM: echidna, 11 h incubation, serum purified by DEAE Affi-Gel Blue, RP-HPLC area under the curve of intact peptide, means ± S.E.M. of three experiments in triplicate
Description: as §5

hGLP-1R [14] = target: T1, hGLP-1R; assay: Intracellular Ca2+ mobilization, FlpInCHO-hGLP-1R cells; format: cell-based
Description: as §2, §3, §4

hGLP-1R [15] = target: T1, hGLP-1R; assay: ERK1/2 phosphorylation, FlpInCHO-hGLP-1R cells; format: cell-based
Description: as §2
FlpInCHO-hGLP-1R and FlpInCHO-pGLP-1R cells were seeded at a density of 3 × 10^4 cells/well into 96-well culture plates and incubated overnight at 37 °C in 5% CO2. Receptor-mediated ERK1/2 phosphorylation was determined as previously described.
as §4

in vitro [16] = format: in vitro ADME, platypus; conditions: 37 °C; for Effect of DPP-4 inhibitor P32/98 on degradation in platypus serum (in words): 100 μM P32/98, 7 μM peptide, RP-HPLC; for remaining at 11 h, 7 μM: platypus, 11 h incubation, 7 μM peptide, serum purified by DEAE Affi-Gel Blue, RP-HPLC area under the curve of intact peptide, means ± S.E.M. of three experiments in triplicate
Description: as §5

Compound: CC[C@H](C)[C@H](NC(=O)[C@H](Cc1ccccc1)NC(=O)[C@H](CCC(=O)O)NC(=O)[C@H](CCCCN)NC(=O)[C@H](C)NC(=O)[C@H](C)NC(=O)[C@H](CCC(N)=O)NC(=O)CNC(=O)[C@H](CCC(=O)O)NC(=O)[C@H](CC(C)C)NC(=O)[C@H](Cc1ccc(O)cc1)NC(=O)[C@H](CO)NC(=O)[C@H](CO)NC(=O)[C@@H](NC(=O)[C@H](CC(=O)O)NC(=O)[C@H](CO)NC(=O)[C@@H](NC(=O)[C@H](Cc1ccccc1)NC(=O)[C@@H](NC(=O)CNC(=O)[C@H](CCC(=O)O)NC(=O)[C@H](C)NC(=O)[C@@H](N)Cc1c[nH]cn1)[C@@H](C)O)[C@@H](C)O)C(C)C)C(=O)N[C@@H](C)C(=O)N[C@@H](Cc1c[nH]c2ccccc12)C(=O)N[C@@H](CC(C)C)C(=O)N[C@H](C(=O)N[C@@H](CCCCN)C(=O)NCC(=O)N[C@@H](CCCNC(=N)N)C(=O)NCC(=O)O)C(C)C [hGLP-1]
half-life at 30 μM (DPP-4 [1]): ≤ 1 h | pEC50 INS-1 (832/13) cAMP accumulation (INS-1 (832/13) cells): 9.6 ± 0.3 | pEC50 pGLP-1R CHO Ca2+ mobilization (pGLP-1R [2]): 8.3 ± 0.1^& | pIC50 pGLP-1R CHO (pGLP-1R [3]): 8.9 ± 0.1

Compound: H-Ala-Pro-p-nitroanilide
cleaved bond [4]: Pro-p-nitroanilide | cleaved bond [5]: Pro-p-nitroanilide | cleaved bond [6]: Pro-p-nitroanilide

Compound: HFDGVYTDYFSRYLEEKATNEFIDWLLKGQE
not cleaved [8]: 99.3 ± 1.8% after 11 h | cleaved bond (echidna serum): T19-N20; also recorded: R12-Y13; also recorded: Y13-L14 | not cleaved (DPP-4 [9]): not degraded by human DPP-4

Compound: HFDGVYTDYFSRYLEEKATNEFIDWLLKGQE [eGLP-1]
IC50 (hGLP-1R [10]): 25.1 nM | Degradation by purified human DPP-4 (in words) (purified human DPP-4): not degraded | Stability in albumin-depleted human serum (in words) (in vitro [11]): remained stable | remaining at 11 h, 7 μM (in vitro [11]): 99.3 ± 1.8% | EC50 (hGLP-1R [12]): 126 nM | Uncleaved peptide remaining after 11 hours in echidna serum (in vitro [13]): less than 50% | remaining at 11 h, 7 μM (in vitro [13]): 42.4 ± 4.3% | EC50 (hGLP-1R [14]): 10000 nM | EC50 (hGLP-1R [15]): 794 nM | Effect of DPP-4 inhibitor P32/98 on degradation in platypus serum (in words) (in vitro [16]): did not alter the cleavage pattern | remaining at 11 h, 7 μM (in vitro [16]): 48.3 ± 3.5%

Compound: HSEGTFTNDVTRLLEEKATSEFIAWLLKGLE [pGLP-1]
IC50 (hGLP-1R [10]): 12.6 nM | Degradation by purified human DPP-4 (in words) (purified human DPP-4): not degraded | Stability in albumin-depleted human serum (in words) (in vitro [11]): remained stable | remaining at 11 h, 7 μM (in vitro [11]): 96.4 ± 2% | EC50 (hGLP-1R [12]): 2 nM | Uncleaved peptide remaining after 11 hours in echidna serum (in vitro [13]): less than 50% | remaining at 11 h, 7 μM (in vitro [13]): 49.4 ± 2.9% | EC50 (hGLP-1R [14]): 316 nM | EC50 (hGLP-1R [15]): 12.6 nM | Effect of DPP-4 inhibitor P32/98 on degradation in platypus serum (in words) (in vitro [16]): did not alter the cleavage pattern | remaining at 11 h, 7 μM (in vitro [16]): 55.1 ± 3.5%

More lines, main results first:

fragment found (echidna serum): hGLP-1 (1-22) HAEGTFTSDVSSYLEGQAAKEF | not cleaved [7]: remained intact (0% degraded)
Compound: HAEGTFTSDVSSYLEGQAAKEFIAWLVKGRG

not cleaved [8]: 96.4 ± 2.0% after 11 h | not cleaved (DPP-4 [9]): not degraded by human DPP-4
Compound: HSEGTFTNDVTRLLEEKATSEFIAWLLKGLE
cleaved bond (echidna serum): R12-L13; also recorded: L14-E15; also recorded: E16-K17; also recorded: T19-S20; also recorded: L26-L27; also recorded: K28-G29
